US8003621B2, “Drug carriers” (Nitto Denko Corporation, priority 2007, dated 2011)

Test system: red blood cell
Test: Hemolytic assay
Design: species or system nude mice
Conditions: 0.2% TritonX-100, 100 μL/well with 10 μL of blood sample; 60 minutes at 37° C.
Experimental: Blood samples of nude mice were collected in heparinize-tubes and were centrifuged at 700×g for 10 minutes. The supernatant was discarded, and the red blood cell pellet was washed three times with cold PBS (pH 7.4) and was re-suspended in the same buffer. Solutions of the polymers and the siEGFP of different concentrations were prepared in PBS buffers and were added to the round-bottom plate at 100 μL/well. Blood sample (10 μL) was added to each well, and the plate was incubated for 60 minutes at 37° C. The release of hemoglobin was determined by photospectrometric analysis after centrifugation (700 g for 10 min). The supernatant (100 μL) from each well was transferred into flat-bottom plate. Intensity of […] at 540 nm was measured by a plate reader.

TritonX-100
hemolysis (control value): 100%
